Measurements as given in patent US7534590B2, “Method for producing monatin” (AJINOMOTO Co., Inc., priority 2003, dated 2009).
Entries after “also recorded” stand apart in the source; their conditions may differ. Each block holds one molecule with its values, some of them ahead of it.

Legend:
[1] = stability in strongly acidic or strongly alkaline solution to be treated; type: physicochemical; details: for stability in strongly acidic solution: strongly acidic region
Description: The value of pH in the solution to be treated may be 2 to 12, more preferably 7 to 11 and particularly preferably 8 to 9.
When the solution to be treated is strongly acidic or alkaline and contains IHOG, IHOG is decomposed and can not be recovered. […] This cyclization is an irreversible reaction, and therefore, it is difficult to regenerate the cyclized IHOG to reuse for the monatin production.

[2] = pH stability of IHOG in amination reaction solution (without microbial cells); type: physicochemical
Protocol: [I] pH Stability of IHOG in Amination Reaction Solution
In order to examine the stability of IHOG in the IHOG amination solution, change of IHOG amounts with time in an IHOG amination solution was measured without adding the microbial cells. A test tube containing 1 mL of the reaction solution composed of 100 mM potassium phosphate buffer (pH 8.3), 300 mM (±)-IHOG, 600 mM DL-Ala and 1 mM pyridoxal-5′-phosphate was shaken at 37° C. for 40 hours, to perform the reaction. […] This is presumed to be attributed to the decomposition of IHOG into indole-3-pyruvic acid and pyruvic acid and the cyclization of IHOG.

[3] = pH stability of IHOG in buffer; type: physicochemical; details: 0.54 mM IHOG, 40 mM potassium phosphate buffer, 35° C.
Protocol: [II] pH Stability of IHOG in Buffer
The survival rate of IHOG (0.54 mM) was measured in 40 mM potassium phosphate buffer at different pH. The storage temperature was adjusted to 35° C.

[4] = cited from earlier work; for sweetness potency: relative to sucrose

stability in strongly acidic solution [1]: easily cyclized
Compound: O=C(O)C(=O)CC(O)(Cc1c[nH]c2ccccc12)C(=O)O (racemic) [IHOG, 4-(indol-3-ylmethyl)-4-hydroxy-2-oxoglutaric acid]
stability in strongly alkaline solution ([1]; strongly alkaline solution): easily decomposed into indole-3-pyruvic acid and pyruvic acid spontaneously | Survival rate of IHOG ([2]; 100 mM potassium phosphate buffer pH 8.3, 300 mM (±)-IHOG, 600 mM DL-Ala, 1 mM pyridoxal-5'-phosphate, 37° C., after 16 hours): 81% | Survival rate of IHOG ([2]; same amination solution pH 8.3, 37° C., after 24 hours): 70% | Survival rate of IHOG ([2]; same amination solution pH 8.3, 37° C., after 40 hours): 57% | Survival rate of IHOG ([3]; pH 7, 2 hr): 97.4% | Survival rate of IHOG ([3]; pH 7, 7 hr): 90.0% | Survival rate of IHOG ([3]; pH 7, 24 hr): 68.4% | Survival rate of IHOG ([3]; pH 7, 48 hr): 45.6% | Survival rate of IHOG ([3]; pH 8, 2 hr): 100.6% | Survival rate of IHOG ([3]; pH 8, 7 hr): 100.1% | Survival rate of IHOG ([3]; pH 8, 24 hr): 96.4% | Survival rate of IHOG ([3]; pH 8, 48 hr): 89.6% | Survival rate of IHOG ([3]; pH 9, 2 hr): 100.6% | Survival rate of IHOG ([3]; pH 9, 7 hr): 101.1% | Survival rate of IHOG ([3]; pH 9, 24 hr): 99.0% | Survival rate of IHOG ([3]; pH 9, 48 hr): 94.4% | Survival rate of IHOG ([3]; pH 10, 2 hr): 97.0% | Survival rate of IHOG ([3]; pH 10, 7 hr): 96.8% | Survival rate of IHOG ([3]; pH 10, 24 hr): 94.2% | Survival rate of IHOG ([3]; pH 10, 48 hr): 90.8% | Survival rate of IHOG ([3]; pH 11, 2 hr): 95.6% | Survival rate of IHOG ([3]; pH 11, 7 hr): 90.7% | Survival rate of IHOG ([3]; pH 11, 24 hr): 74.8% | Survival rate of IHOG ([3]; pH 11, 48 hr): 59.3%

Compound: N[C@H](C[C@](O)(Cc1c[nH]c2ccccc12)C(=O)O)C(=O)O (single isomer, unassigned) [(2R, 4R)-isomer]
sweetness rank among four optical isomers of monatin ([4]; comparison of the monatin isomers, listed as (2R, 4R)-monatin): the isomer having the highest sweetness among four optical isomers of monatin; also recorded: highest sweetness potency among monatin isomers | sweetness potency [4]: hundreds of times to thousands of times stronger than sucrose

Compound: N[C@H](C[C@@](O)(Cc1c[nH]c2ccccc12)C(=O)O)C(=O)O (single isomer, unassigned) [(2R, 4S)-isomer]
sweetness potency [4]: hundreds of times to thousands of times stronger than sucrose

Compound: N[C@@H](C[C@](O)(Cc1c[nH]c2ccccc12)C(=O)O)C(=O)O (single isomer, unassigned) [(2S, 4R)-isomer]
sweetness potency [4]: hundreds of times to thousands of times stronger than sucrose

Compound: NC(CC(O)(Cc1c[nH]c2ccccc12)C(=O)O)C(=O)O (single isomer, unassigned) [(2S, 4S)-isomer]
sweetness potency [4]: hundreds of times to thousands of times stronger than sucrose

Compound: NC(CC(O)(Cc1c[nH]c2ccccc12)C(=O)O)C(=O)O (centres unmarked) [Monatin]
stability in strongly acidic solution [1]: partially decomposed into lactam and lactone | sweetness potency [4]: dozens to thousands of times stronger than that of sucrose
